Assay results reported in patent US20220025003A1, “REAGENTS AND METHODS FOR CONTROLLING PROTEIN FUNCTION AND INTERACTION” (University of Washington, priority 2018, published 2022).

Legend:
[1] = system: RAS/ERK pathway in HEK293 cells; assay: Activation of NS3a-CDAR, phospho-ERK blot; format: cell-based; conditions: 10 μM drug, 60 min
Method: 18-24 hours prior to transfection, 3.0×10^5 HEK293 cells were plated onto poly-D-lysine 12 well plates. Immediately prior to transfection, media was aspirated and cells were washed with 1 mL of pre-warmed (37° C.) PBS, then serum starved with FBS-free DMEM. Following serum starvation, cells were transfected with 1 μg of FLAG-tagged NS3a-CDAR, BH3-NS3a-CDAR, or an empty pCDNA5 vector. Transfected cells were allowed to serum stave for 18-20 hours prior to drug treatment. For drug treatment, serum-free media was prepared with DMSO or 10 μM of a drug. Media was aspirated, washed once with pre-warmed DPBS, then treated with drug/DMSO media for the requisite amount of time. Media was subsequently aspirated and the cells were washed twice with 1 mL chilled PBS, then lysed with 75 μL Mod. RIPA buffer (50 mM Tris, pH 7.8, 1% IGEPAL CA-630, 150 mM NaCl, 1 mM EDTA, 2 mM Na3VO4, 30 mM NaF, Pierce Protease Inhibitor Tablet). Cleared lysates were subjected to SDS-PAGE and transferred to nitrocellulose. Blocking and antibody incubations were done in TBS with 0.1% Tween-20 (v/v) and blocking buffer (Odyssey). Primary antibodies were all purchased from Cell Signaling Technologies and were diluted as follows: Total ERK (1:2500, #9107), phosphorylated ERK (1:2500, #4370), FLAG (1:2,500, #D6W5B). Blots were washed three times in TBS with 0.1% Tween-20. Antibody binding was detected by using near-infrared-dye-conjugated secondary antibodies and visualized on the LI-COR Odyssey scanner. Blots were quantified via densitometry with Image Studio (LI-COR).

NS3a in NIH3T3 cells = assay: Confocal microscopy for colocalization analysis (fixed cells); format: cell-based; conditions: 5 μM drug
GFP reporter = assay: Combined CXCR4 and GFP induction with scRNAs, NS3a-VPR; format: cell-based; conditions: read-out: EC50 (GFP expression)
CXCR4 [2] = assay: Danoprevir/grazoprevir titrations to linearize CXCR4 or CD95 expression; format: cell-based, human; conditions: increasing proportion of grazoprevir added to danoprevir titration
Source text: Data were fit to four-parameter log dose-response curves (fitting EC50, upper and lower baselines, and Hill coefficient) in Graphpad Prism 5.

NS3a active = molecular target: T1, NS3a active (Hepatitis C virus genotype 1b, UniProt Q9WMX2, A1176V/E1056D/L1047A/L1120M/Q1112P/R1052K/V1062L/V1196I); assay: Fluorescence polarization competition assay with FAM-ANR; format: binding
T1 construct: Avi-His6-NS3a; made in house; host or cells: E. coli BL21 (DE3)
Method: (§1) Fluorescence polarization competition assays were used to determine the ability of danoprevir to displace ANR. A 75 nM solution of NS3a in FP-Buffer was incubated with 50 nM FAM-ANR in a black 96-well plate for 1 hour in the dark. 3-fold serial dilutions of danoprevir were prepared in FP-Buffer such that, when added to the NS3a/FAM-ANR solution, the highest concentration of danoprevir tested was 10 μM. Plates were incubated for 1 hour in the dark. Fluorescence polarization was measured at 22° C. on a Perkin Elmer EnVision™ fluorometer (excitation, 495 nm; emission 520 nm). Each measurement was carried out in triplicate. Anisotropy values were obtained and a nonlinear regression model was used to fit curves with GraphPad Prism.

NS3a inactive (S139A) = molecular target: T2, NS3a inactive (S139A) (Hepatitis C virus genotype 1b, UniProt Q9WMX2, A1176V/E1056D/L1047A/L1120M/Q1112P/R1052K/S1165A/V1062L/V1196I); assay: as above; format: binding; conditions: 75 nM NS3a, read-out: apparent IC50
T2 construct: Avi-His6-NS3a; the text calls the FP protein non-biotinylated) (N); made in house; host or cells: E. coli BL21 (DE3)
Method: as §1

[3] = system: mCherry reporter gene in HEK293T cells; assay: Chemically-disruptable Gal4(DBD)-NS3a(H1)/ANR-VPR transcriptional regulation; format: cell-based; conditions: 1 μM drug, 24 hours
Method: Cells were subsequently transfected with 1 μg of the Gal4 reporter plasmid (UAS-mCherry™/CMV-Gal4-NS3a(H1)-P2A-ANR-Myc-BFP-VPR-NLS) in OptiMem™. […] Supernatant was subsequently removed and the cells were re-suspended in 400 μL DPBS and analyzed on a FACS LSRII (BD Biosciences).
For Gal4/NS3a-CDP mediated transcriptional activation FACS experiments, 10,000 single cell events were collected for each of the samples run. […] The gathered FACS data were analyzed using FlowJo™ (v.10.1).

CXCR4 [4] = assay: dCas9 transcription control, immunofluorescence FACS; format: cell-based, human; conditions: CXCR4 and CD95
GFP, CD95 and CXCR4 = assay: 3-gene experiment (GFP, CD95, CXCR4) by RT-qPCR; format: cell-based; conditions: 10 μM danoprevir, 1 μM grazoprevir, 1 μM asunaprevir
Source text: Cells were harvested on day 5 as described above for other samples to be analyzed to qPCR.

HeLa cells = assay: Widefield microscopy for signaling phenotype analysis; format: cell-based; conditions: EGFP-DNCR2-TIAM, BFP-GNCR1-LARG and NS3a-CAAX in HeLa cells
Method: Widefield images were collected in an environmental chamber with humidity control, 37° C., and 5% CO2 on a Leica DMi8 automated fluorescence microscope. Cells were plated on glass-bottomed 96-well plates (Cellvis). Plates were treated with 10 μg/mL bovine fibronectin (Sigma Aldrich) for 1 hour and washed once with PBS.
The cell line used was TRex™-HeLa (ThermoFisher Scientific), into which Lifeact-mCherry™ was stably integrated into the doxycycline-regulated Flp-In site by co-transfection of the pCDNA5-FRT/TO-Lifeact-mCherry™ vector with the Flp recombinase plasmid pOG44 (ThermoFisher Scientific) according to manufacturer's protocols. Lifeact-mCherry™ was induced by addition of 1 μg/mL doxycycline to culture media. For expression of signaling effector proteins, 1 day prior to imaging, 5×10^6 cells were transiently transfected with 10 μg DNA in a 100 μL electroporation tip using a Neon transfection system (ThermoFisher Scientific) according to manufacturer's recommendations for HeLa cells. 5×10^3 cells were plated in each well of the 96-well plate used for imaging. Cells recovered in complete DMEM with 10% FBS overnight. […] For Rac/Rho regulation, the construct PB-NS3a-CAAX-IRES-EGFP-DNCR2-TIAM-P2a-BFP-GNCR1-LARG was used, with images collected for the mCherry™ (Lifeact) and EGFP (DNCR2-TIAM) channels. […]

## CC(C)(C)OC(=O)N[C@H]1CCCCC/C=C\[C@@H]2C[C@@]2(C(=O)NS(=O)(=O)C2CC2)NC(=O)[C@@H]2C[C@@H](OC(=O)N3Cc4cccc(F)c4C3)CN2C1=O [danoprevir]
[1]
  phospho-ERK levels in cells expressing NS3a-CDAR: robust increase in phospho-ERK levels
NS3a in NIH3T3 cells
  Colocalization of DNCR2-EGFP and GNCR1-BFP with NS3a-mCherry-CAAX: DNCR2/NS3a colocalization
  Localization of NS3a-mCherry with Tom20-BFP-ANR and DNCR2-EGFP-CAAX: moved to the plasma membrane
NS3a in NIH3T3 cells; 15 min
  Colocalization of NS3a-mCherry with ANR-BFP-CAAX or NLS-DNCR2-EGFP: recruited NS3a to the nucleus with NLS-DNCR2-EGFP
  Colocalization of NS3a-mCherry with GNCR1-BFP-CAAX or Tom20-DNCR2-EGFP: led to colocalization with mitochondria-targeted Tom20-DNCR2-EGFP
GFP reporter
  EC50: 0.79 nM
CXCR4 [2]
  linear output range of CXCR4 expression: 3 orders of magnitude
NS3a active
  displacement of ANR from NS3a: potently and dose-dependently displace ANR from NS3a
NS3a active; NS3a active, 75 nM NS3a, FAM-ANR, read-out: apparent IC50
  IC50: < 75 nM
NS3a inactive (S139A)
  IC50: < 75 nM
[3]
  mCherry expression after drug treatment: decreased mCherry™ expression to background levels
CXCR4 [4]
  effect on gene expression in the absence of the guide RNA: no effect
GFP, CD95 and CXCR4
  transcriptional output state in 3-gene system: CD95 expression under control of DNCR2
HeLa cells
  cell shape change: caused cell expansion
